Measurements taken from ChEMBL document CHEMBL4673347, “Discovery of new thieno[2,3-d]pyrimidine and thiazolo[5,4-d]pyrimidine derivatives as orally active phosphoinositide 3-kinase inhibitors” (Bioorg Med Chem, 2021).
Converted amounts (≈) assume the structure as drawn. The source made the active and inactive calls. The rule behind the calls is not given here.

Assays:
NCI-H292 = test: Antiproliferative activity against human NCI-H292 cells assessed as reduction in cell viability incubated for 72 hrs measured after 4 hrs of MTT addition by MTT assay; format: functional, cell-based
[1] = biological target: Phosphatidylinositol 4,5-bisphosphate 3-kinase catalytic subunit alpha isoform (Homo sapiens, UniProt P42336); test: Inhibition of recombinant human full length His-tagged PI3Kalpha expressed in baculovirus expression system using PIP2 as substrate by ADP-Glo reagent based assay
HGC-27 [2] = test: Antiproliferative activity against human HGC-27 cells assessed as reduction in cell viability incubated for 72 hrs measured after 4 hrs of MTT addition by MTT assay; format: functional, cell-based
HGC-27 [3] = test: Inhibition of PI3K signalling in human HGC-27 cells assessed as reduction in AKT S473 phosphorylation incubated for 3 hrs by Western blot analysis; format: cell-based; conditions: dose 20-1000 nM
HGC-27 [4] = test: Inhibition of PI3K signalling in human HGC-27 cells assessed as reduction in S6RP S235/236 phosphorylation incubated for 3 hrs by Western blot analysis; format: cell-based; conditions: dose 20-1000 nM
HGC-27 [5] = test: Induction of apoptosis in human HGC-27 cells assessed as viable cells at 500 nM incubated for 24 hrs by annexin V-FITC and propidium iodide based staining based flow cytometry analysis (reference value: 83.7 %); format: functional; conditions: read-out: Activity
HGC-27 [6] = test: Induction of apoptosis in human HGC-27 cells assessed as early apoptotic cells at 500 nM incubated for 24 hrs by annexin V-FITC and propidium iodide based staining based flow cytometry analysis (reference value: 6.22 %); format: functional
HGC-27 [7] = test: Induction of apoptosis in human HGC-27 cells assessed as late apoptotic cells at 500 nM incubated for 24 hrs by annexin V-FITC and propidium iodide based staining based flow cytometry analysis (reference value: 8.15 %); format: functional
[8] = biological target: Phosphatidylinositol 4,5-bisphosphate 3-kinase catalytic subunit delta isoform (Homo sapiens, UniProt O00329); test: Inhibition of recombinant human full length His-tagged PI3Kdelta expressed in baculovirus expression system using PIP2 as substrate by ADP-Glo reagent based assay
[9] = biological target: Phosphatidylinositol 4,5-bisphosphate 3-kinase catalytic subunit gamma isoform (Homo sapiens, UniProt P48736); test: Inhibition of recombinant human GST-tagged PI3Kgamma (468 to 1203 residues) expressed in insect expression system using PIP2 as substrate by ADP-Glo reagent based assay
AGS = test: Antiproliferative activity against human AGS cells assessed as reduction in cell viability incubated for 72 hrs measured after 4 hrs of MTT addition by MTT assay; format: functional, cell-based
SGC-7901 = test: Antiproliferative activity against human SGC-7901 cells assessed as reduction in cell viability incubated for 72 hrs measured after 4 hrs of MTT addition by MTT assay; format: functional, cell-based
[10] = Antiproliferative activity against human KATO III stomach cancer cell line cells assessed as reduction in cell viability incubated for 72 hrs measured after 4 hrs of MTT addition by MTT assay; format: functional
MKN-45 = test: Antiproliferative activity against human MKN-45 cells assessed as reduction in cell viability incubated for 72 hrs measured after 4 hrs of MTT addition by MTT assay; format: functional, cell-based
SNU-638 = test: Antiproliferative activity against human SNU-638 cells assessed as reduction in cell viability incubated for 72 hrs measured after 4 hrs of MTT addition by MTT assay; format: functional, cell-based
SNU-16 = test: Antiproliferative activity against human SNU-16 cells assessed as reduction in cell viability incubated for 72 hrs measured after 4 hrs of MTT addition by MTT assay; format: functional, cell-based
A549 = test: Antiproliferative activity against human A549 cells assessed as reduction in cell viability incubated for 72 hrs measured after 4 hrs of MTT addition by MTT assay; format: functional, cell-based
NCI-H23 = test: Antiproliferative activity against human NCI-H23 cells assessed as reduction in cell viability incubated for 72 hrs measured after 4 hrs of MTT addition by MTT assay; format: functional, cell-based
NCI-H358 = test: Antiproliferative activity against human NCI-H358 cells assessed as reduction in cell viability incubated for 72 hrs measured after 4 hrs of MTT addition by MTT assay; format: functional, cell-based
NCI-H1437 = test: Antiproliferative activity against human NCI-H1437 cells assessed as reduction in cell viability incubated for 72 hrs measured after 4 hrs of MTT addition by MTT assay; format: functional, cell-based
MDA-MB-231 = test: Antiproliferative activity against human MDA-MB-231 cells assessed as reduction in cell viability incubated for 72 hrs measured after 4 hrs of MTT addition by MTT assay; format: functional, cell-based
MG-63 = test: Antiproliferative activity against human MG-63 cells assessed as reduction in cell viability incubated for 72 hrs measured after 4 hrs of MTT addition by MTT assay; format: functional, cell-based
[11] = Kinetic solubility of compound in PBS buffer at pH 7.4; format: physicochemical; conditions: read-out: Kinetic_solubility
[12] = Apparent permeability across basolateral to apical side in human Caco-2 cells; format: ADME, cell-based
[13] = Protein binding in plasma (unknown origin) assessed as unbound fraction; format: ADME, cell-free
[14] = Half life in ICR mouse at 4 mg/kg, iv measured upto 24 hrs by LC-MS/MS analysis; format: ADME, organism-based; conditions: in vivo
[15] = Clearance in ICR mouse at 4 mg/kg, iv measured upto 24 hrs by LC-MS/MS analysis; format: ADME, organism-based; conditions: in vivo
[16] = Volume of distribution at steady state in ICR mouse at 4 mg/kg, iv measured upto 24 hrs by LC-MS/MS analysis; format: ADME, organism-based; conditions: in vivo, read-out: Vdss
[17] = AUC (0 to t) in ICR mouse at 4 mg/kg, iv measured upto 24 hrs by LC-MS/MS analysis; format: ADME, organism-based; parameters: route intravenous, dose 4 mg/kg, time <=24; conditions: in vivo
[18] = AUC (0 to infinity) in ICR mouse at 4 mg/kg, iv measured upto 24 hrs by LC-MS/MS analysis; format: ADME, organism-based; parameters: route intravenous, dose 4 mg/kg, time <=24; conditions: in vivo
[19] = Half life in ICR mouse at 40 mg/kg, po measured upto 24 hrs by LC-MS/MS analysis; format: ADME, organism-based; conditions: in vivo
[20] = Cmax in ICR mouse at 40 mg/kg, po measured upto 24 hrs by LC-MS/MS analysis; format: ADME, organism-based; parameters: route oral, dose 40 mg/kg, time <=24; conditions: in vivo
[21] = AUC (0 to t) in ICR mouse at 40 mg/kg, po measured upto 24 hrs by LC-MS/MS analysis; format: ADME, organism-based; parameters: route oral, dose 40 mg/kg, time <=24; conditions: in vivo
[22] = Oral bioavailability in ICR mouse at 40 mg/kg measured upto 24 hrs by LC-MS/MS analysis; format: ADME, organism-based; conditions: in vivo
HGC-27 [23] = test: Antitumor activity against human HGC-27 cells xenografted in BALB/c mouse assessed as reduction in Ki67 expression at 20 to 40 mg/kg, po administered for 25 days and measured on day 25 by […] immunohistochemistry; format: functional, organism-based; conditions: dose 20-40 mg/kg, time 25.0 day
Mus musculus [24] = test: In vivo inhibition of PI3Kalpha in BALB/c mouse assessed as increase in plasma glucose level at 40 mg/kg, po measured after 30 mins; format: functional, organism-based
Mus musculus [25] = test: In vivo inhibition of PI3Kalpha in BALB/c mouse assessed as increase in plasma glucose level at 40 mg/kg, po measured after 24 hrs; format: functional, organism-based
Mus musculus [26] = test: In vivo inhibition of PI3Kalpha in BALB/c mouse assessed as increase in plasma insulin level at 40 mg/kg, po measured after 24 hrs; format: functional, organism-based

Chain of Phosphatidylinositol 4,5-bisphosphate 3-kinase catalytic subunit delta isoform (O00329 whole entry, the tested form may be a part, canonical isoform): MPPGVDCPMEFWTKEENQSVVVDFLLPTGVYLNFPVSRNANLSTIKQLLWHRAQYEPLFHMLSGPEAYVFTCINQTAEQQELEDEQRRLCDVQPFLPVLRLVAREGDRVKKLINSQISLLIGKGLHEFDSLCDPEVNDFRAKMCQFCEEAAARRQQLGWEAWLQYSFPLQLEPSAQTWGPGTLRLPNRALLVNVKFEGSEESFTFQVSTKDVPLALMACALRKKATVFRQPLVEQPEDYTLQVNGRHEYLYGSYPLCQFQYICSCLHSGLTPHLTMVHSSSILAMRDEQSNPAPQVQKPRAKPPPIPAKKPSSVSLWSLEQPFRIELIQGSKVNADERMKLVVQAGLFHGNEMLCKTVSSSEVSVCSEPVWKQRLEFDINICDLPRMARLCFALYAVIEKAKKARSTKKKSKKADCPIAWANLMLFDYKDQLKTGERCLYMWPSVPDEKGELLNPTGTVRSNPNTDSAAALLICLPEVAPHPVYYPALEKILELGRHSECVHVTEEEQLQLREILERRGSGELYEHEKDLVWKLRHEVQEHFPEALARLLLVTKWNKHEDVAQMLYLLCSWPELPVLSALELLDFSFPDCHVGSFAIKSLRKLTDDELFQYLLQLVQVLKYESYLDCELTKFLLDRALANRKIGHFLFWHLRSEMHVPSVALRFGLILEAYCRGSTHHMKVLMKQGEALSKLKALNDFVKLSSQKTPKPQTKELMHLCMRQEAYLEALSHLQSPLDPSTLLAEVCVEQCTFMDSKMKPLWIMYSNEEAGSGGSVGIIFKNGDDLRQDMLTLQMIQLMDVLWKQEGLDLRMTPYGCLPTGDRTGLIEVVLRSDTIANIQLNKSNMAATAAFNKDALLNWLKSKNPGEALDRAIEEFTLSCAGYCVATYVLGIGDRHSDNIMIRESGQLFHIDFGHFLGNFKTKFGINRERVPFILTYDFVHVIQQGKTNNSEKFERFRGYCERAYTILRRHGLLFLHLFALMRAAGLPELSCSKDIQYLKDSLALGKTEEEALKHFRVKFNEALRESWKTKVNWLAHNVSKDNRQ
Chain of Phosphatidylinositol 4,5-bisphosphate 3-kinase catalytic subunit alpha isoform (P42336 whole entry, canonical isoform): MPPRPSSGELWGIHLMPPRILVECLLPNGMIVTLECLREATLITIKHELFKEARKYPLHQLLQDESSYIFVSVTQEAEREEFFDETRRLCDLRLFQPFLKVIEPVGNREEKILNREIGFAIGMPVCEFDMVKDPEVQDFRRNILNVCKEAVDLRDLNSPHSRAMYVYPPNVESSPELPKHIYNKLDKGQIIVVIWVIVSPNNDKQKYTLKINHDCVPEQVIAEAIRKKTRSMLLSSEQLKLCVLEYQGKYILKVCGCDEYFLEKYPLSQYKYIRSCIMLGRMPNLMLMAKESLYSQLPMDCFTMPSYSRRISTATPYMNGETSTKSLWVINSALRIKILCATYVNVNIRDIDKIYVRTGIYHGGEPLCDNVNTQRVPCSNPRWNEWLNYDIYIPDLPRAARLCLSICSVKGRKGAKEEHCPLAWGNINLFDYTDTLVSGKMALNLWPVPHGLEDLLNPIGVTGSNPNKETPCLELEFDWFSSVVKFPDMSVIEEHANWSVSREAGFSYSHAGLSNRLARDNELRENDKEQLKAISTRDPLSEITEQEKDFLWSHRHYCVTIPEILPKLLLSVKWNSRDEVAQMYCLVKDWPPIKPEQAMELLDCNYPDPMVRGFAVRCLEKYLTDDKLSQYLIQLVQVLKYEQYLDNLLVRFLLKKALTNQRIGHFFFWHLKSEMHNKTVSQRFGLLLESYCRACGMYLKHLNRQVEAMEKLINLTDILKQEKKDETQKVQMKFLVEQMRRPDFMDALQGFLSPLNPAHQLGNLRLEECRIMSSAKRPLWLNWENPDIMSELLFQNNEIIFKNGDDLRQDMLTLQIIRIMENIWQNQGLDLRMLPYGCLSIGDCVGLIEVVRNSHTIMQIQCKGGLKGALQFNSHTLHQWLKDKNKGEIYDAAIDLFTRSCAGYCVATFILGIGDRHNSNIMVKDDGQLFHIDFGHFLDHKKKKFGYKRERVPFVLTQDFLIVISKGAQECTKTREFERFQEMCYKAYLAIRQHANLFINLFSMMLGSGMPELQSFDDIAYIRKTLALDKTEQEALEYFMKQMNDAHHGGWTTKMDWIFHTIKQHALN
Chain of Phosphatidylinositol 4,5-bisphosphate 3-kinase catalytic subunit gamma isoform (P48736 whole entry, the tested form may be a part, canonical isoform): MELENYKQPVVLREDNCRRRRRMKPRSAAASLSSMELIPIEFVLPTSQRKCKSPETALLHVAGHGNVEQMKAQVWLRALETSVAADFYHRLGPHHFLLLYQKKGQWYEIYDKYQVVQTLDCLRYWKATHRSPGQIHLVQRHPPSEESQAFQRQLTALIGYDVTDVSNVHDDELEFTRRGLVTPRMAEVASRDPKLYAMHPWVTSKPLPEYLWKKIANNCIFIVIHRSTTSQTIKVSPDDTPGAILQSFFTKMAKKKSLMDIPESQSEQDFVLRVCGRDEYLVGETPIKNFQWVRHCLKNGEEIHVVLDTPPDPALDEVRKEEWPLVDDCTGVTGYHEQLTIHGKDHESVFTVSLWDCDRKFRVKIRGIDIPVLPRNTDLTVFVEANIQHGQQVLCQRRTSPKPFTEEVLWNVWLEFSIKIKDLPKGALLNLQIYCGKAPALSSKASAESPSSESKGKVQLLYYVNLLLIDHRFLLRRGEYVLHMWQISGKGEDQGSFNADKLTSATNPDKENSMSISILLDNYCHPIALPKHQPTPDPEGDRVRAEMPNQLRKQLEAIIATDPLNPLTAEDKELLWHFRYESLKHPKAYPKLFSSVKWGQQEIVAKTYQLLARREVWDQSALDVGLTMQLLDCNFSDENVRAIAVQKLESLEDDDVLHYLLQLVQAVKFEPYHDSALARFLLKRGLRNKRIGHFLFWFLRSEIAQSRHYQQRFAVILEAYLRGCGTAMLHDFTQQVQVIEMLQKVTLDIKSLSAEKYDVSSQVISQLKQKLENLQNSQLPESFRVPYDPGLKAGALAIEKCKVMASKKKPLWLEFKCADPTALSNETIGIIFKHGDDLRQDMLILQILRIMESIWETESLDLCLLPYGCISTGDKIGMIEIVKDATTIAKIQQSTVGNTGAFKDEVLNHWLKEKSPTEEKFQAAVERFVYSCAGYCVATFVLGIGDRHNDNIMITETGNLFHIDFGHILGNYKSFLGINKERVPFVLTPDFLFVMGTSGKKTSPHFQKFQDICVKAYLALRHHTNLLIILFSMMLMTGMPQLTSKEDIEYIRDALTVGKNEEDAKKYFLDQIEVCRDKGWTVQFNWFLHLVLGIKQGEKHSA

| Compound | IC50 (NCI-H292) [nM] | IC50 [1] [nM] | IC50 (HGC-27 [2]) [nM] | inhibition (HGC-27 [3]) | inhibition (HGC-27 [4]) | viability at 0.5 µM (HGC-27 [5]) [%] | Activity (HGC-27 [6]) [%] | Activity (HGC-27 [7]) [%] | IC50 [8] [nM] | IC50 [9] [nM] | IC50 (AGS) [nM] | IC50 (SGC-7901) [nM] | IC50 [10] [nM] | IC50 (MKN-45) [nM] | IC50 (SNU-638) [nM] | IC50 (SNU-16) [nM] | IC50 (A549) [nM] | IC50 (NCI-H23) [nM] | IC50 (NCI-H358) [nM] | IC50 (NCI-H1437) [nM] | also measured |
| --- | --- | --- | --- | --- | --- | --- | --- | --- | --- | --- | --- | --- | --- | --- | --- | --- | --- | --- | --- | --- | --- |
| COc1ncc(-c2cc3c(N4CCOCC4)ncnc3s2)cc1NS(=O)(=O)c1ccc(F)cc1F | 2700 | 7.2 | 390 | Dose-dependent effect | Dose-dependent effect | 75.1 | 15.8 | 8.87 | 3.9 | 12 | 3900 | 5200 | 4700 | 2600 | 2400 | 5800 | 7800 | 4400 | 5200 | 2900 | IC50 (MDA-MB-231): 8200 nM; IC50 (MG-63): 7000 nM; solubility kinetic [11]: 10.3 µM (≈ 5.35 µg/mL); Papp B→A [12]: 37.6 ×10⁻⁶ cm/s; Fu [13]: 0.3%; half-life [14]: 1.36 h; clearance [15]: 4.6 mL/min/kg; Vd [16]: 0.537 L/kg; AUC(0-t) at 24 h [17]: 14300 ng·h/mL; AUC(0-inf) [18]: 14600 ng·h/mL; half-life [19]: 13.7 h; Cmax [20]: 22500 ng/mL; AUC(0-t) at 24 h [21]: 143000 ng·h/mL; bioavailability [22]: 99.5%; inhibition (HGC-27 [23]): Active; inhibition (Mus musculus [24]): Active; inhibition (Mus musculus [25]): inactive; inhibition (Mus musculus [26]): inactive |
| COc1ncc(-c2nc3c(N4CCOCC4)ncnc3s2)cc1NS(=O)(=O)c1ccc(F)cc1F | 320 | 1.7 | 40 | Dose-dependent effect | Dose-dependent effect | 77.7 | 17.6 | 4.53 | 1 | 2 | 720 | 640 | 930 | 1100 | 690 | 3100 | 620 | 580 | 1000 | 1100 | IC50 (MDA-MB-231): 860 nM; IC50 (MG-63): 360 nM; solubility kinetic [11]: 6.31 µM (≈ 3.28 µg/mL); Papp B→A [12]: 43.4 ×10⁻⁶ cm/s; Fu [13]: 0.3%; half-life [14]: 2.25 h; clearance [15]: 2.65 mL/min/kg; Vd [16]: 0.513 L/kg; AUC(0-t) at 24 h [17]: 23200 ng·h/mL; AUC(0-inf) [18]: 25300 ng·h/mL; half-life [19]: 6.3 h; Cmax [20]: 9610 ng/mL; AUC(0-t) at 24 h [21]: 126000 ng·h/mL; bioavailability [22]: 54.5%; inhibition (HGC-27 [23]): Active; inhibition (Mus musculus [24]): Active; inhibition (Mus musculus [25]): inactive; inhibition (Mus musculus [26]): inactive |
